Experimental data as given in patent US11371994B2, “Phosphorylated Akt-specific capture agents, compositions, and methods of using and making” (California Institute of Technology, priority 2013, dated 2022).
Values joined by “and” are separate entries in the source; they are usually repeats but may differ in a detail not shown here. Equal entries are not always repeated. “Also recorded” adds a separate entry of the source.

Experiments:
Akt [1] = conditions: cited from earlier work
Akt2 epitope (450-481) = target: T1, Akt2 epitope (450-481) (Homo sapiens, UniProt P31751); assay: Epitope selectivity ELISA with His6 tagged C-terminal 32-mer fragments; format: binding; conditions: peptide fragments; set also full protein level
T1 construct: made in house; host or cells: chemical solid-phase peptide synthesis (Rink Amide MBHA resin)
T1 sequence (P31751 450-481 limits assumed): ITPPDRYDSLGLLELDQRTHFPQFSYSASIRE
Protocol: (§1) 1.25 μM biotinylated ligand was prepared by diluting the 1 mM stock in binding buffer (25 mM tris chloride, pH=7.4, 150 mM NaCl, 0.1% BSA, 0.05% Tween 20). The prepared ligand solution or 0.125% DMSO in buffer (buffer control) was immobilized on a High Capacity Streptavidin 96 well plate (Thermo Scientific). After washing away the excess ligand, the plate was blocked overnight with 1% BSA/25 mM tris chloride, pH=7.4/150 mM NaCl, 0.05% Tween 20. 2.5 μM solutions of the His6 (SEQ ID NO:28) tagged target phosphopeptide epitope Akt2 amino acids 450-481, His6 (SEQ ID NO:28) tagged Akt1 amino acids 449-480, His6 (SEQ ID NO:28) tagged Akt3 amino acids 448-479 were added to each of the wells. Following three washes with the binding buffer, the plate was treated for an hour with a 1:1000 dilution of anti His6 (SEQ ID NO:28) mouse monoclonal antibody. A 1:10,000 dilution of goat anti mouse antibody-Horse Radish Peroxide conjugate in binding buffer was added to the wells. The plates were washed four times, five minutes each, with 0.05% Tween 20/TBS (25 mM tris chloride, pH=7.5, 150 mM NaCl) and once with TBS (25 mM tris chloride, pH=7.5, 150 mM NaCl). […] The A450 measured on a 96-well plate reader. The Net A450 was obtained by subtracting the absorbance value for the blank control (no immobilized ligand) from each of the triplicate values obtained for the ligand-epitope interaction. […]

Akt [2] = target: T2, Akt (Homo sapiens, UniProt P31751); assay: OVCAR3 lysate pull-down (immunoprecipitation) assay; format: binding; conditions: eluents stained with pan-Akt antibody
T2 construct: endogenous in cells; host or cells: OVCAR3
Protocol: OVCAR3 cells (ATCC) were grown in RPMI-1640 media containing 20% fetal bovine serum. Passage three cells were grown to ˜80% confluence. Cells were lysed with lysis buffer (10 mM Tris-Cl (pH=7.5), 100 mM NaCl, 1% (v/v) Triton X-100, 0.1% SDS (w/v), 0.5% deoxycholate, 1 mM DTT, 1 mM EDTA, 1× PhosStop phosphatase inhibitors (Roche), 1× Complete protease inhibitors (Roche)) and the amount of protein measured using BCA Protein Assay Kit (Pierce Biotechnologies, Inc). Streptavidin-agarose resin solution (EMD) was swelled in TBST (25 mM tris chloride, pH=7.5, 150 mM NaCl, 0.05% Tween-20). Each of the biotinylated ligands was immobilized on the Streptavidin-agarose resin by adding 7.2 μL of 1 mM ligand stock (DMSO) to 10 μL of the swelled streptavidin-agarose resin. For the blank control, the resin was treated with 7.2 μL of 1 mM biotinylated acyl glycine. […] After shaking overnight at 4° C., 50 μM D-biotin was added to the resin to block any remaining sites. The resin was washed with TBST five times, for fifteen minutes each. The resin was then swelled in binding buffer for two hours. To each of the immobilized ligands, 200 μL OVCAR3 cell lysate (1.9 mg/ml) was added. The tubes were shaken at 4° C. for 18 hours. The beads were extensively washed, three times for fifteen minutes in binding buffer, three times (fifteen minutes) in TBST, and three times (fifteen minutes) in TBS to remove unbound proteins. The resin bound proteins were eluted by adding 40 μL of 2×SDS-PAGE sample loading buffer (BioRad) and heating at 95° C. for five minutes. A 1:10 diluted sample of lysate in sample loading buffer was prepared by mixing 1 μL of the sample with 9 μL sample loading buffer and denaturing the sample by heating at 95° C. for five minutes. 10 μL of each sample was loaded on a 12% SDS-PAGE gels (BioRad) and run for 80 minutes at 110 volts. Three identical gels were loaded and run at the same time. One gel was used for Coomassie staining with Coomassie Fluor Orange Protein Gel Stain (Molecular Probes) following the manufacturer's protocol. The two other gels were transferred to nitrocellulose membranes by the semidry transfer method, blocked for two hours at 4° C. with 5% non-fat milk, and treated overnight at 4° C. with a 1:1000 dilution of pan-Akt rabbit monoclonal antibody (Cell Signaling Technology) and a 1:1000 dilution of pS473 Akt rabbit monoclonal antibody (Cell Signaling Technology), respectively, in 0.5% non-fat milk. The membranes were washed and treated for an hour with a 1:10,000 dilution of monoclonal mouse anti-rabbit-HRP secondary antibody (Cell Signaling Technology) in 0.5% milk. After five washes of five minutes each with TBST and one wash of five minutes with TBS, the blots were developed with West Dura ECL substrate (Thermo Scientific) and imaged on film.

[3] = target: T3, target peptide epitope (Akt2 450-481, pS474) (Homo sapiens, UniProt P31751); assay: ELISA of C terminal triligand candidates binding to the target peptide epitope; conditions: listed as C-t1
T3 construct: made in house; host or cells: chemical solid-phase peptide synthesis (Rink Amide MBHA resin)
T3 sequence (P31751 450-481 limits assumed): T1 sequence (P31751 450-481 limits assumed)
Protocol: Selection of the final C terminal triligand C-tL: Four triligand candidates were synthesized with (L-Az4)-hdGGf (SEQ ID NO:25) […], (L-Az4)-hdGsf (SEQ ID NO:74) (C-t2), (L-Az4)-hdGww (SEQ ID NO:67) (C-t3), (L-Az4)-hdGkf (SEQ ID NO:77) (C-t4) as the 3° peptide arm. Binding of the candidates to the target peptide epitope was determined in an ELISA assay (FIG. 20C) and the ligand C-t1 emerged as the best binder. C-t1 was chosen as the C terminal triligand C-tL.
as §1, with “wells.” for “wells. Following three washes with the binding buffer, the plate was treated for an hour with a 1:1000 dilution of anti His6 (SEQ ID NO:28) mouse monoclonal antibody. A 1:10,000 dilution of goat anti mouse antibody-Horse Radish Peroxide conjugate in binding buffer was added to the wells. The plates were washed four times, five minutes each, with 0.05% Tween 20/TBS (25 mM tris chloride, pH=7.5, 150 mM NaCl) and once with TBS (25 mM tris chloride, pH=7.5, 150 mM NaCl).”

Akt2 [4] = target: T4, Akt2 (Homo sapiens, UniProt P31751); assay: Single component ELISA, PCC agent as capture or detection agent (relative affinity); format: binding; parameters: purchased Abcam; conditions: read-out: EC50 from single component ELISA
Text: FIG. 23: A. ELISA assays in which the PCC Agents are utilized as either as surface-localized capture agents (for N-tL, C-tL) or as the detection agent (for mono-L, bi-L). Such assays provide relative affinity measurements, which are given as EC50 values in the key. […] C. C-tL distinguishes the full length Akt2 from isoform proteins Akt1 and Akt3. D. The 32 amino acid long C terminal fragment from Akt2, Akt1 and Akt3. The hydrophobic motif is highlighted in blue. pS refers to phospho-serine. […] F. Selectivity assays: Biotinylated ligands or biotinylated pS473 antibody is immobilized on streptavidin-agarose and treated with OVCAR3 cell lysate. The eluents are stained with a pan-Akt antibody or pS473 Akt antibody.
1.25 μM biotinylated ligand was prepared by diluting the 1 mM stock in binding buffer (25 mM tris chloride, pH=7.4, 150 mM NaCl, 0.1% BSA, 0.05% Tween 20). The prepared ligand solution or 0.125% DMSO in buffer (buffer control) was immobilized on a High Capacity Streptavidin 96 well plate (Thermo Scientific). After washing away the excess ligand, the plate was blocked overnight with 1% BSA/25 mM tris chloride, pH=7.4/150 mM NaCl, 0.05% Tween 20. 2.5 μM solutions of the His6 (SEQ ID NO:28) tagged target phosphopeptide epitope Akt2 amino acids 450-481, His6 (SEQ ID NO:28) tagged Akt1 amino acids 449-480, His6 (SEQ ID NO:28) tagged Akt3 amino acids 448-479 were added to each of the wells. Following three washes with the binding buffer, the plate was treated for an hour with a 1:1000 dilution of anti His6 (SEQ ID NO:28) mouse monoclonal antibody. A 1:10,000 dilution of goat anti mouse antibody-Horse Radish Peroxide conjugate in binding buffer was added to the wells. The plates were washed four times, five minutes each, with 0.05% Tween 20/TBS (25 mM tris chloride, pH=7.5, 150 mM NaCl) and once with TBS (25 mM tris chloride, pH=7.5, 150 mM NaCl). Color was developed by adding TMB substrate (KPL) to each well. The reaction was quenched with 0.5 M H2SO4. The A450 measured on a 96-well plate reader. The Net A450 was obtained by subtracting the absorbance value for the blank control (no immobilized ligand) from each of the triplicate values obtained for the ligand-epitope interaction. The selectivity assay with full length His6 (SEQ ID NO:28) tagged Akt1, Akt2 and Akt3 was performed following the same protocol, using 25 nM protein instead of 2.5 μM His6 tagged peptide epitope.

Akt2 [5] = target: T4, Akt2; assay: Non-radioactive kinase assay, phosphorylation of GSK-3α/β fusion protein; format: biochemical; parameters: purchased Abcam
Protocol: The non-radioactive kinase assay kit for Akt2 was purchased from Cell Signaling. Ligand solutions were made in DMSO. Kinase reactions were set up in 1× kinase buffer (25 mM trisHCl (pH 7.5), 10 mM MgCl2, 0.01% Triton-X, 1× Complete protease inhibitor (Roche), 1× Phosstop phosphatase inhibitor (Roche)), each 25 μL reaction mixture containing 400 ng Akt2, 400 ng GST-GSK-3α/β fusion protein, […] and 0.5 μL of peptide solutions in DMSO or DMSO only. Reactions were allowed to proceed for 30 minutes at 30° C. A reaction mixture was also prepared using a 1:2.5 dilution of anti pS473 antibody (Cell Signaling) in the kinase buffer instead of the peptide ligand or DMSO. The reactions were quenched by adding 12.5 μL of 2×SDS sample loading buffer and heating at 95° C. for five minutes. 10 μL from each sample was loaded on an any kD SDS gel (BioRad) and run for an hour at 110 volts. Following semidry transfer of the gel to a nitrocellulose membrane, the membrane was blocked in 5% nonfat milk/TBST for an hour at 4° C., and treated overnight at 4° C. with a 1:200 dilution of Phospho GSK-3α/β Ser (21/9) rabbit antibody (Cell Signaling) in 0.5% milk/TBST. Following washes, the membrane was treated with a 1:2000 dilution of mouse anti-rabbit-HRP antibody for an hour at 4° C. After four five minute washes with TBST, and one five minute wash with TBS, the membrane was treated with West Dura ECL substrate (Thermo Scientific) and imaged on film.

T4 sequence (P31751 whole entry, the tested form may be a part, canonical isoform): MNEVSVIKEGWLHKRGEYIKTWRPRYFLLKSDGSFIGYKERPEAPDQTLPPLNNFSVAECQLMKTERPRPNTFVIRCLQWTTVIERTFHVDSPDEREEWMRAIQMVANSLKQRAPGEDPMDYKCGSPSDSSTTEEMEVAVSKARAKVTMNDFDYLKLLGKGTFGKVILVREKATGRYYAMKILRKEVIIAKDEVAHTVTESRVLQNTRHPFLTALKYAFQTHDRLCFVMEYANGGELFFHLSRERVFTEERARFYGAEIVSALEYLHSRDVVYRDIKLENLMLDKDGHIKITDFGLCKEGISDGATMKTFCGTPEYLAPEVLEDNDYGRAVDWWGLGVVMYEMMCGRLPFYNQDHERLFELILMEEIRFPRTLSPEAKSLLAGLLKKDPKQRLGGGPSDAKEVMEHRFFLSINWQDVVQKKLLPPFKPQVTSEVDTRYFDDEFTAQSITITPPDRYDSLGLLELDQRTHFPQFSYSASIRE
T2 sequence (P31751 whole entry): as the sequence (P31751 whole entry, the tested form may be a part, canonical isoform) above

Row | Compound | effect on Akt phosphorylation (Akt [1]) | selectivity for the Akt2 epitope compared to corresponding regions in Akt1 and Akt3 (Akt2 epitope (450-481)) | immunoprecipitation of Akt from OVCAR3 cell lysate (Akt [2]) | binding to the target peptide epitope [3] | EC50 (Akt2 [4]) | EC50 (Akt2 [5]; densitometry of pGSK3α/β western blot, normalized to DMSO control, read-out: EC50 of inhibition of Akt2 kinase activity) | influence on Akt2 kinase activity (p-GSK-3α/β level) (Akt2 [5]; relative to DMSO control)
1 | Cc1n[nH]c2ccc(-c3cncc(OC[C@@H](N)Cc4c[nH]c5ccccc45)c3)cc12 [A-443654] | paradoxical hyper-phosphorylation of Akt at both Thr308 and Ser473 | – | – | – | – | – | –
2 | CC(=O)NC(CCCCn1cc(C[C@@H](NC(=O)CCCCn2cc(C[C@@H](NC(=O)[C@@H](Cc3ccccc3)NC(=O)[C@@H](Cc3ccc(O)cc3)NC(=O)CNC(=O)[C@@H](CC(N)=O)NC(=O)[C@H](N)Cc3c[nH]cn3)C(=O)O)nn2)C(=O)N[C@H](Cc2c[nH]c3ccccc23)C(=O)N[C@H](CCCCN)C(=O)N[C@@H](C(=O)N[C@H](CCCCN)C(=O)N[C@H](CCCCNC(=O)CCc2cn(CCCC[C@H](NC(C)=O)C(=O)N[C@H](Cc3c[nH]cn3)C(=O)N[C@H](CC(=O)O)C(=O)NCC(=O)NCC(=O)N[C@H](Cc3ccccc3)C(N)=O)nn2)C(=O)N2CCCCC2)C(C)C)nn1)C(=O)NCCOCCOCCOCCC(=O)NCCNC(=O)CCCC[C@@H]1SC[C@@H]2NC(=O)N[C@@H]21 (stereo partly shown) [C-tL] | – | significant selectivity for the Akt2 epitope | lower signal than N-tL | best binder; also recorded: shows good binding | 0.125 µM | 4 µM and ~4 µM | inhibits Akt2 kinase activity
